Test results as given in patent US10519423B1, “High efficiency reprogramming of fibroblasts into cardiomyocytes” (The Regents of the University of Colorado, a body corporate, priority 2015, dated 2019).

What was measured:
MEFs [1] = experiment: Intracellular staining for flow cytometry (cTnT, Myc) in retrovirus-infected MEFs; type: cell-based, mouse; settings: GHMT-infected MEFs, day 7; alone or treated with TGF-β1 (10 ng/ml) or A83-01 (0.5 μM, day 3 to day 7)
Protocol: C57BL6 pregnant mice at E13 were order from Charles River's laboratory. Embryos at E14.5 were harvested and their internal organs and head were removed. The body below the liver was minced using blade to fine pieces. Minced embryos were incubated with 2 ml of 0.25% trypsinIl mM EDTA, Phenol Red (Gibco) for 40 mins at 37° C. with 5% CO2. Cells were suspended in 25 ml of growth medium (DMEM/Hi glucose (Hyclone) 10% FBS (Gemini), 1.1% Penicillin-Streptomycin (Gibco) and 1.1% GlutaMAX supplement (Gibco)) and then plated on a 15 cm dish. In 24 hours, the media was aspirated and new 25 ml of growth medium was added. In 72 hours, MEFs were harvested and stored for future use.
(§1) Fibroblasts were plated on tissue culture dishes pre-coated with SureCoat (Cellutron) at a density of ˜40 cells/mm^2 before transduction. The fibroblast growth medium was replaced with freshly made viral mixture containing polybrene (Sigma). Twenty-four hours later, fibroblasts were infected again with viral mixture containing polybrene. Twenty fours later, the viral medium was replaced with induction medium, composed of DMEM/199 (4:1) (Gibco), 10% FBS (Gemini), 5% horse serum(Gemini), antibiotics (Gibco), 1× non-essential amino acids (Gibco), 1× essential amino acids (Gibco), 1× B-27 (Gibco), 1× insulin-selenium-transferin (Gibco), 1× vitamin mixture (Gibco), and 1× sodium pyruvate (Gibco). Medium was changed every two-three days until cells were examined.
Adherent fibroblasts were washed with DPBS (Gibco). Cells were detached from culture dish by treatment with 0.25% Trypsin/EDTA (Gibco) for 3 min at 37° C. Cells were then washed with 4 ml of 5% FBS (Gemini) in DPBS filtered through a cell strainer and centrifuge at 1200 rpm×6 mins. Cells were washed with 500 ul of 1% BSA in DPBS. Cells were fixed with BD Cytofix/Cytoperm™ solution in 0.2 ml/1 million cells in 1.5 ml eppendorf tube for 20 min on ice. Cells were washed with 1 ml of BD perm/wash buffer and Centrifuged for 6 min at 1200 rpm. The supernatant was discarded; cells were washed again with 1 ml of BD Perm/wash buffer and left overnight at 4° C. The next day, Cells were centrifuged for 6 min at 1200 rpm, the supernatant discarded and 100 μl of Blocking buffer made with 5% goat, donkey serum (Sigma: G9023 and D9663) in Perm/wash buffer was added to the cells and incubated for 30 min at RT. A primary antibody: Mouse Troponin T (cTnT) antibody (Thermo Scientific, ms-295-p, 1:200), mouse anti-C-Myc antibody (BD Pharmingen, 551102, 1:200) in 100 μl BD Perm/Wash buffer was added to the cells and incubated for 1 hr at RT. One ml cold BD Perm/wash buffer was added to the cells and centrifuged for 6 min at 1200 rpm. […] Cells were re-suspended in 300 ul of 1% BSA/DPBS and then analyzed using FACS Caliber (BD Sciences) and FlowJo software.

MEFs [2] = experiment: Immunocytochemistry for cTnT and α-actinin in infected MEFs; type: cell-based, mouse
Protocol: as §1
(§2) Cells were fixed in 2% PFA for 15 min on ice then washed with DPBS (Gibco) three times at RT. The cells were permeabilized in 0.5% Triton X-100 (made in PBS) for 20 min at RT. After washing the cells with DPBS (Gibco), cells were incubated with the primary antibody against α-actinin (Sigma A7811, 1:300), Connexin 43 (Sigma, C6219, 1:500), Troponin T (Thermo Scientific MS-245-P, 1:500), α-SMA (Santa Cruz Biotechnology, SC-32251, 1:800), Myl2 (Proteintech, 10906-1-AP, 1:200), or Myl7 (Proteintech, 17283-1-AP, 1:200) in 10% FBS(Gemini) in DPBS for 1 hour at RT. Cells were wash with DPBS three times, 5 min each. Cell were incubated with the secondary antibody (Alexa Fluor 555 Molecular Probes A21422, 1:1000) and Hoechest (Molecular Probes 33342, 1:5000) for 30 mins at RT.

MEFs [3] = experiment: Counting of spontaneously beating cells in infected MEFs; type: cell-based, mouse; settings: for spontaneously beating cells induced by GHMT2m in the presence of inhibitor: GHMT2m-MEFs treated 7 days, counted at day 9, Thiazovivin 2.5 μM, SR-3677 5 μM, GW788388 3 μM, LY-364947 1.5 μM, SD-208 1 μM
Protocol: as §1
Cells in 60 mm dishes were examined under an EVOS® FL Color imaging system (Life Technologies) at 25° C. Beating cells were counted at a field with an area of 0.89 mm^2. Ten to fifteen fields in each dish were randomly chosen.

MEFs [4] = experiment: Pro-fibrotic marker expression in infected MEFs (qPCR, Western blot, αSMA stress fiber immunostaining); type: cell-based, mouse
Protocol: (§3) Cells were harvested in TRizol reagent (Ambion) for RNA isolation. RNA was extracted with the RNeasy® Plus Universal Mini Kit (Qiagen). RT-PCR was performed using the Superscript III first-strand synthesis system (Invitrogen). qPCR was performed using the SYBR® Green PCR master mix (Applied Biosystems) or StepOne™ Real-Time PCR Systems (Applied Biosystems). Primers are listed in Supplementary Table 1. Ryr2 (Mm00465877_m1) and Myh7 (Mm01319006_91) are Taqman probes (Life technologies).
Samples were placed on ice and washed with ice-cold DPBS (Gibco) twice, then ice-cold lysis buffer (150 mM NaCl, 50 mM Tris-Cl pH7.4, 1 mM EDTA, 1% Triton, Complete mini tablet (Roche), 1 mM PMSF freshly added before use) was added to the cells. Cells were scraped and transferred to a pre-chilled 1.5 Eppendorf tube and frozen in liquid N2. Before used, the lysate was thawed on ice. The lysate was passed carefully through a 25 g needle for 5 times and then centrifuge at 14,000 rpm for 15 minutes at 4° C. The supernatant was transferred to a new 1.5 ml tube. The protein concentration was measured and 20 ug of lysate for each sample was loaded to SDSPAGE. Proteins were then transferred to PVDF. The PDVF membrane was blocked in 2.5% BSA in 1×TBST for 30 mins at room temperature (RT). The primary antibody was added in blocking buffer for 60 mins at RT. Wash in 1×TBST (20 mM Tris-Cl, pH7.4; 150 mM NaCl; 0.1% Tween20) three times at RT, each for 15 mins. The Secondary antibody was added in blocking buffer for 45 mins at RT. The membrane was washed in 1 XTBST for 15 mins, 1×TBST for 5 mins, then TBS (10 mM Tris-Cl pH8, 150 mM NaCl) for 5 mins. The membrane was resolved with Super Signal® West Pico (34080) or Femto (34095) substrate (Thermo Scientfic). The primary antibodies include: Snail (Cell Signaling, 3879S, 1:1000), Slug (Cell Signaling, 9585S, 1:1000), P-Smad2 (Cell Signaling, 23108P, 1:1000), Smad2 (Cell Signaling, 5339, 1:1000), αSMA (Santa Cruz, SC-32251, 1:10000), cTn1 (Phospho Solutions, 2010-TNI, 1:1000), cTnT (Sigma, T6277, 1:1000), and GAPDH (Ambion, AM4300). The secondary antibodies include: Goat Anti-Mouse IgG (H+L) (Southern Biotech, 1031-05, 1:2000). Goat Anti-Rabbit IgG (Life Technologies, 65-6120, 1:2000). For separation of α- and β-myosin heavy chain, samples were run by modified 6% SDS-PAGE (separating acrylamide/bis ratio 1:100; resolving gel buffer pH 9.0; running gel buffer pH 8.2; β-mercaptoethanol 600 μl/l inner gel buffer). Gels were run overnight at 4° C. and stained with BioSafe Coomassie Blue protein stain.
as §2

MEFs [5] = experiment: qPCR of cardiac genes in reprogramming MEFs; type: cell-based, mouse
Protocol: as §3

iCMs = experiment: Spontaneous calcium transients in Fura-2 AM-loaded iCMs; type: cell-based, mouse; set-up: dose or concentration left out as unconfirmed; settings: iCMs on days 10-12, isoproterenol
Source text: To determine whether iCMs were developing functional excitation-contraction (EC) coupling, we imaged spontaneous calcium transients from Fura-2 AM-loaded iCMs. Spontaneous calcium transients were detected in spontaneously beating cells on days 10-12 (FIGS. 68-71). […] To determine whether iCMs are able to appropriately respond to hormone stimulation, a critical function of normal cardiomyocytes, we measured calcium transients in response to the b-adrenergic agonist isoproterenol (Iso).

[6] = system: mice following ischemia/reperfusion injury; settings: cited from earlier work
rats following MI = settings: cited from earlier work
[7] = GFP-, GHMT- and GHMT2m-infected cultures, day 7

**Q.** Which results are given for “TGF-β1: Recombinant Mouse TGF-beta 1 (R&D Systems 7666-MB-005), pro-fibrotic stimulus”?
**A.** cTnThigh fraction (MEFs [1]): approximately 19%; fraction of cTnT+ cells (MEFs [2]; GHMT2m-cultures treated with TGF-β1, day 7 and day 14): did not significantly decrease; cTnT+ and α-actinin+ populations (MEFs [2]; GHMT-infected MEFs treated with TGF-β1, day 14): significantly reduced; decrease of beating cells (MEFs [3]; GHMT2m-infected MEFs treated with TGF-β1, by one month): 100 fold; effect on beating cells (MEFs [3]; GHMT-infected MEFs treated with TGF-β1, by one month): completely abolished; profibrotic gene Col1a1 expression (MEFs [4]; GHMT2m-fibroblasts treated with TGF-β1): enhanced; amount of phospho-Smad2, expression of Fn-EDA and Col1a1, formation of αSMA stress fibers (MEFs [4]; GHMT-infected cultures at day 7, TGF-β1 10 ng/ml, compared to non-treated): increased; expression of other cardiomyocyte markers, including α-actinin, Myh6 and Actc1 (MEFs [5]; GHMT2m-cultures treated with TGF-β1): significantly down-regulated; cardiac gene expression (MEFs [5]; GHMT-infected cultures treated with TGF-β1 for 4 days): significantly reduced

**Q.** For `CC(C)NCC(O)c1ccc(O)c(O)c1` (stereo not shown) [Iso, isoproterenol], which “frequency of cell contraction and spontaneous calcium transients” value (iCMs) is on record?
**A.** Its value is “significantly increased”.

**Q.** For `c1ccc(-c2[nH]ncc2-c2ccnc3ccccc23)nc1` [LY-364947], which “spontaneously beating cells induced by GHMT2m in the presence of inhibitor” value (MEFs [3]) is on record?
**A.** The value was “enhanced cardiac reprogramming by inducing more spontaneously beating cells”.

**Q.** For `Fc1ccc(Cl)cc1-c1nc(Nc2ccncc2)c2nccnc2n1` [SD-208], which “spontaneously beating cells induced by GHMT2m in the presence of inhibitor” value (MEFs [3]) is on record?
**A.** Its value is “enhanced cardiac reprogramming by inducing more spontaneously beating cells”.

**Q.** Which results are given for `C[C@@H](N)[C@H]1CC[C@H](C(=O)Nc2ccncc2)CC1` [Y-27632]?
**A.** assembly of myocyte sarcomeres (MEFs [2]; infected MEFs treated with Y-27632 (30 μM), day 14): enhanced; beating cell population (MEFs [3]; GHMT2m cultures of MEFs, by day 12, without or with Y-27632 (30 μM)): ~30%; increase of the number of beating cells (MEFs [3]; GHMT-infected MEFs, Y-27632 30 μM, by 4 weeks): 7 fold; time by which cells started to beat (MEFs [3]; MEFs, GHMT2m alone, or GHMT-infected cultures treated with Y-27632 (30 μM) or A83-01 (0.5 μM)): ≤ 12 days; Snail and Slug expression (MEFs [4]; [7]): did not change; expression of Fn-EDA and αSMA (MEFs [4]; [7]): decreased; inhibition of expression of pro-fibrotic markers, comparison of inhibitors (MEFs [4]; reprogramming MEFs): inhibited expression of pro-fibrotic markers less efficiently than A83-01; cardiomyocyte-specific gene expression (MEFs [5]; reprogramming MEFs treated with Y-27632 for 5 days, day 7): enhanced; infarct size and remodeling [6]: decreased infarct size and remodeling

**Q.** With `O=C(NCc1ccccc1)c1csc(Nc2ccncn2)n1` [Thiazovivin] as the compound, how does the “spontaneously beating cells induced by GHMT2m in the presence of inhibitor” value (MEFs [3]) read?
**A.** The value was “enhanced cardiac reprogramming and promoted formation of spontaneously beating cells”.

**Q.** With `O=C(NC1CCOCC1)c1ccc(-c2cc(-c3c[nH]nc3-c3ccccn3)ccn2)cc1` [GW788388] as the compound, how does the “spontaneously beating cells induced by GHMT2m in the presence of inhibitor” value (MEFs [3]) read?
**A.** The value was “enhanced cardiac reprogramming by inducing more spontaneously beating cells”.

**Q.** What about the “TGF-β activity, cardiac fibrosis, ventricular remodeling, systolic dysfunction” value (rats following MI) of the same compound?
**A.** Its value is “significantly decreased TGF-β activity, cardiac fibrosis and ventricular remodeling with attenuation of systolic dysfunction”.

**Q.** For `CN(C)CCOc1cc(-c2cn[nH]c2)ccc1NC(=O)C1COc2ccccc2O1` (stereo not shown) [SR-3677], which “spontaneously beating cells induced by GHMT2m in the presence of inhibitor” value (MEFs [3]) is on record?
**A.** The value was “enhanced cardiac reprogramming and promoted formation of spontaneously beating cells”.
